Active and inactive are the calls of the source. How the calls were made is not given here.
Test system: CCRIS mutagenicity, Ames/micronucleus/aberration tests
Experiment: CCRIS mutagenicity studies
[1] = Test System: AMES SALMONELLA TYPHIMURIUM, Strain/Indicator: TA97, Metabolic Activation: HAMSTER, LIVER, S-9, AROCLOR 1254 (10 OR 30%), Method: PREINCUBATION
[2] = Test System: AMES SALMONELLA TYPHIMURIUM, Strain/Indicator: TA97, Metabolic Activation: NONE, Method: PREINCUBATION
[3] = Test System: AMES SALMONELLA TYPHIMURIUM, Strain/Indicator: TA97, Metabolic Activation: RAT, LIVER, S-9, AROCLOR 1254 (10 OR 30%), Method: PREINCUBATION
[4] = Test System: AMES SALMONELLA TYPHIMURIUM, Strain/Indicator: TA98, Metabolic Activation: HAMSTER, LIVER, S-9, AROCLOR 1254 (10 OR 30%), Method: PREINCUBATION
[5] = Test System: AMES SALMONELLA TYPHIMURIUM, Strain/Indicator: TA98, Metabolic Activation: NONE, Method: PREINCUBATION
[6] = Test System: AMES SALMONELLA TYPHIMURIUM, Strain/Indicator: TA98, Metabolic Activation: RAT, LIVER, S-9, AROCLOR 1254 (10 OR 30%), Method: PREINCUBATION
[7] = Test System: AMES SALMONELLA TYPHIMURIUM, Strain/Indicator: TA100, Metabolic Activation: HAMSTER, LIVER, S-9, AROCLOR 1254 (10 OR 30%), Method: PREINCUBATION
[8] = Test System: AMES SALMONELLA TYPHIMURIUM, Strain/Indicator: TA100, Metabolic Activation: NONE, Method: PREINCUBATION
[9] = Test System: AMES SALMONELLA TYPHIMURIUM, Strain/Indicator: TA100, Metabolic Activation: RAT, LIVER, S-9, AROCLOR 1254 (10 OR 30%), Method: PREINCUBATION
[10] = Test System: AMES SALMONELLA TYPHIMURIUM, Strain/Indicator: TA1535, Metabolic Activation: HAMSTER, LIVER, S-9, AROCLOR 1254 (10 OR 30%), Method: PREINCUBATION
[11] = Test System: AMES SALMONELLA TYPHIMURIUM, Strain/Indicator: TA1535, Metabolic Activation: NONE, Method: PREINCUBATION
[12] = Test System: AMES SALMONELLA TYPHIMURIUM, Strain/Indicator: TA1535, Metabolic Activation: RAT, LIVER, S-9, AROCLOR 1254 (10 OR 30%), Method: PREINCUBATION
[13] = Test System: AMES SALMONELLA TYPHIMURIUM, Strain/Indicator: TA1537, Metabolic Activation: NONE, Method: PREINCUBATION

In the case of `CCCCN(CC)CC`, the mutagenic call [1] is reported as “inactive; negative”, the mutagenic call [2] is reported as “inactive; negative” and the mutagenic call [3] is reported as “inactive; negative”. The mutagenic call [4] was “inactive; negative”, the mutagenic call [5] was “inactive; negative” and the mutagenic call [6] was “inactive; negative”. For the same molecule, the mutagenic call [7] was “inactive; negative”, the mutagenic call [8] was “inactive; negative” and the mutagenic call [9] was “inactive; negative”. The mutagenic call [10] was “inactive; negative”, the mutagenic call [11] was “inactive; negative” and the mutagenic call [12] was “inactive; negative”.
With `NC(=O)c1ccccc1` the mutagenic call [1] was “inactive; negative”, the mutagenic call [2] was “inactive; negative” and the mutagenic call [3] was “inactive; negative”. For the same molecule, the mutagenic call [4] was “inactive; negative”, the mutagenic call [5] was “inactive; negative” and the mutagenic call [6] was “inactive; negative”. For the same molecule, the mutagenic call [7] was “inactive; negative”, the mutagenic call [8] was “inactive; negative” and the mutagenic call [9] was “inactive; negative”. The mutagenic call [10] was “inactive; negative”, the mutagenic call [11] was “inactive; negative” and the mutagenic call [12] was “inactive; negative”.
With `CC(Cl)C(Br)CBr` (stereo not drawn) the mutagenic call (Test System: AMES SALMONELLA TYPHIMURIUM, Strain/Indicator: TA100, Metabolic Activation: RAT, LIVER, MICROSOMES, PHENOBARBITAL, Method: PREINCUBATION) was “active; positive” and the mutagenic call (Test System: AMES SALMONELLA TYPHIMURIUM, Strain/Indicator: TA100, Metabolic Activation: RAT, LIVER, MICROSOMES, Method: PREINCUBATION) was “active; positive”.
For `COc1ccc(-c2nc(-c3ccccc3)c(-c3ccccc3)[nH]2)cc1OC`, the mutagenic call (Test System: AMES SALMONELLA TYPHIMURIUM, Strain/Indicator: TA98, Metabolic Activation: NONE, Method: STANDARD PLATE) was “active; positive”, the mutagenic call (Test System: AMES SALMONELLA TYPHIMURIUM, Strain/Indicator: TA100, Metabolic Activation: NONE, Method: STANDARD PLATE) was “active; positive” and the mutagenic call (Test System: AMES SALMONELLA TYPHIMURIUM, Strain/Indicator: TA100, Metabolic Activation: RAT LIVER S-9, 3-METHYLCHOLANTHRENE, SODIUM PHENOBARBITAL, Method: STANDARD PLATE) was “active; positive”.
In the case of `CC1(C)Cc2cccc(O)c2O1`, the mutagenic call (End Point: IN VIVO MICRONUCLEUS, Test System: BONE MARROW POLYCHROMATIC ERYTHROCYTES, Species: MOUSE, Strain/Sex: KM/MALE, FEMALE, Route: IP INJECTION) is reported as “inactive; negative”.
With `COc1cc(CCCS(=O)(=O)O)ccc1O[C@H](Cc1cccc(OC)c1O)CS(=O)(=O)O` the mutagenic call (Test System: AMES SALMONELLA TYPHIMURIUM, Strain/Indicator: TA98, Metabolic Activation: HAMSTER, LIVER, S-9, AROCLOR 1254, Method: PREINCUBATION) was “inactive; negative”, the mutagenic call [5] was “inactive; negative” and the mutagenic call (Test System: AMES SALMONELLA TYPHIMURIUM, Strain/Indicator: TA98, Metabolic Activation: RAT, LIVER, S-9, AROCLOR 1254, Method: PREINCUBATION) was “inactive; negative”. For the same molecule, the mutagenic call (Test System: AMES SALMONELLA TYPHIMURIUM, Strain/Indicator: TA100, Metabolic Activation: HAMSTER, LIVER, S-9, AROCLOR 1254, Method: PREINCUBATION) was “inactive; negative”, the mutagenic call [8] was “inactive; negative” and the mutagenic call (Test System: AMES SALMONELLA TYPHIMURIUM, Strain/Indicator: TA100, Metabolic Activation: RAT, LIVER, S-9, AROCLOR 1254, Method: PREINCUBATION) was “inactive; negative”. The mutagenic call (Test System: AMES SALMONELLA TYPHIMURIUM, Strain/Indicator: TA1535, Metabolic Activation: HAMSTER, LIVER, S-9, AROCLOR 1254, Method: PREINCUBATION) was “inactive; negative”, the mutagenic call [11] was “inactive; negative” and the mutagenic call (Test System: AMES SALMONELLA TYPHIMURIUM, Strain/Indicator: TA1535, Metabolic Activation: RAT, LIVER, S-9, AROCLOR 1254, Method: PREINCUBATION) was “inactive; negative”. For the same molecule, the mutagenic call (Test System: AMES SALMONELLA TYPHIMURIUM, Strain/Indicator: TA1537, Metabolic Activation: HAMSTER, LIVER, S-9, AROCLOR 1254, Method: PREINCUBATION) was “inactive; negative”, the mutagenic call [13] was “inactive; negative” and the mutagenic call (Test System: AMES SALMONELLA TYPHIMURIUM, Strain/Indicator: TA1537, Metabolic Activation: RAT, LIVER, S-9, AROCLOR 1254, Method: PREINCUBATION) was “inactive; negative”.
In the case of `CCN(Cc1ccccc1)c1ccccc1`, the mutagenic call [1] is reported as “inactive; negative”, the mutagenic call [2] is reported as “inactive; negative” and the mutagenic call [3] is reported as “inactive; negative”. The mutagenic call [4] was “inactive; negative”, the mutagenic call [5] was “inactive; negative” and the mutagenic call (Test System: AMES SALMONELLA TYPHIMURIUM, Strain/Indicator: TA98, Metabolic Activation: RAT LIVER S-9, PHENOBARBITAL AND BETA-NAPHTHOFLAVONE, Method: PREINCUBATION) was “inactive; negative”. The mutagenic call [6] was “inactive; negative”, the mutagenic call [7] was “inactive; negative” and the mutagenic call [8] was “inactive; negative”. For the same molecule, the mutagenic call (Test System: AMES SALMONELLA TYPHIMURIUM, Strain/Indicator: TA100, Metabolic Activation: RAT LIVER S-9, PHENOBARBITAL AND BETA-NAPHTHOFLAVONE, Method: PREINCUBATION) was “inactive; negative”, the mutagenic call [9] was “inactive; negative” and the mutagenic call [10] was “inactive; negative”. The mutagenic call [11] was “inactive; negative”, the mutagenic call (Test System: AMES SALMONELLA TYPHIMURIUM, Strain/Indicator: TA1535, Metabolic Activation: RAT LIVER S-9, PHENOBARBITAL AND BETA-NAPHTHOFLAVONE, Method: PREINCUBATION) was “inactive; negative” and the mutagenic call [12] was “inactive; negative”. For the same molecule, the mutagenic call [13] was “inactive; negative”, the mutagenic call (Test System: AMES SALMONELLA TYPHIMURIUM, Strain/Indicator: TA1537, Metabolic Activation: RAT LIVER S-9, PHENOBARBITAL AND BETA-NAPHTHOFLAVONE, Method: PREINCUBATION) was “inactive; negative” and the mutagenic call (Test System: AMES SALMONELLA TYPHIMURIUM, Strain/Indicator: TA1538, Metabolic Activation: NONE, Method: PREINCUBATION) was “inactive; negative”. The mutagenic call (Test System: AMES SALMONELLA TYPHIMURIUM, Strain/Indicator: TA1538, Metabolic Activation: RAT LIVER S-9, PHENOBARBITAL AND BETA-NAPHTHOFLAVONE, Method: PREINCUBATION) was “inactive; negative”, the mutagenic call (Test System: E.COLI, Strain/Indicator: WP2UVRA, Metabolic Activation: NONE, Method: PREINCUBATION) was “inactive; negative” and the mutagenic call (Test System: E.COLI, Strain/Indicator: WP2UVRA, Metabolic Activation: RAT LIVER S-9, PHENOBARBITAL AND BETA-NAPHTHOFLAVONE, Method: PREINCUBATION) was “inactive; negative”.

Reference: PubChem BioAssay AID1259407 (Chemical Carcinogenesis Research Information System (CCRIS), 2018)
